From patent US12233081B2, “Hygromycin a compounds and methods of treating spirochete diseases” (priority 2018, dated 2025)
Like-named read-outs stand apart in the source and are kept apart here.

Assays:
gut microbiome [1] = assay: gut microbiome 16S rRNA sequencing of stool of infected, treated mice; settings: for Enterococcaceae change in percent relative abundance: 100 mg/kg
gut microbiome [2] = settings: mouse, in vivo, 100 mg/kg
[3] = IP 100 mg/kg every 12 hours for 5 days
[4] = oral 100 mg/kg every 12 hours for 5 days

## CC1(C)S[C@@H]2[C@H](NC(=O)[C@H](N)c3ccc(O)cc3)C(=O)N2[C@H]1C(=O)O [Amox, amoxicillin]
Gut microbiome [1]; [3]
  Brucellaceae change in percent relative abundance: 0.000%
  Francisellaceae change in percent relative abundance: 0.001%
Gut microbiome [1]; [4]
  Aerococcaceae change in percent relative abundance: 0.000%
  Anaerolineaceae change in percent relative abundance: 0.000%
  Anaeroplasmataceae change in percent relative abundance: −0.048%
  Anaplasmataceae change in percent relative abundance: 0.000%
  Aspergillaceae change in percent relative abundance: 0.000%
  Asteraceae change in percent relative abundance: 0.003%
  Bacillaceae change in percent relative abundance: 0.002%
  Bacillales change in percent relative abundance: −0.100%
  Bacteroidaceae change in percent relative abundance: −8.426%
  Bifidobacteriaceae change in percent relative abundance: −0.124%
  Brucellaceae change in percent relative abundance: 0.001%
  Camobacteriaceae change in percent relative abundance: −0.002%
  Chitinophagaceae change in percent relative abundance: 0.000%
  Christensenellaceae change in percent relative abundance: 0.000%
  Clostridiaceae change in percent relative abundance: −6.891%
  Clostridiales change in percent relative abundance: −0.099%
  Clostridiales family xi. incertae sedis change in percent relative abundance: −0.027%
  Clostridiales family xiii. incertae sedis change in percent relative abundance: −0.011%
  Coriobacteriaceae change in percent relative abundance: −0.019%
  Corynebacteriaceae change in percent relative abundance: 0.000%
  Cytophagaceae change in percent relative abundance: −0.001%
  Deferribacteraceae change in percent relative abundance: −0.085%
  Defluviitaleaceae change in percent relative abundance: −0.001%
  Desulfobacteraceae change in percent relative abundance: 0.000%
  Enterobacteriaceae change in percent relative abundance: −1.496%
  Erysipelotrichaceae change in percent relative abundance: −2.932%
  Eubacteriaceae change in percent relative abundance: 4.510%
  Fabaceae change in percent relative abundance: 0.001%
  Flavobacteriaceae change in percent relative abundance: 0.000%
  Francisellaceae change in percent relative abundance: −0.001%
  Fusobacteriaceae change in percent relative abundance: 0.000%
  Gammaproteobacteria change in percent relative abundance: −0.027%
  Gloeobacteraceae change in percent relative abundance: −0.013%
  Gracilibacteraceae change in percent relative abundance: −0.105%
  Halomonadaceae change in percent relative abundance: 0.001%
  Hylidae change in percent relative abundance: 0.002%
  Kopriimonadaceae change in percent relative abundance: 0.000%
  Lachnospiraceae change in percent relative abundance: −5.482%
  Lactobacillaceae change in percent relative abundance: −15.023%
  Leuconostocaceae change in percent relative abundance: 0.002%
  Methylobacteriaceae change in percent relative abundance: 0.000%
  Microbacteriaceae change in percent relative abundance: 0.000%
  Mucoraceae change in percent relative abundance: 0.002%
  Nostocaceae change in percent relative abundance: 0.001%
  Onagraceae change in percent relative abundance: 0.000%
  Oscillatoriales change in percent relative abundance: 0.069%
  Oscillospiraceae change in percent relative abundance: −0.005%
  Paenibacillaceae change in percent relative abundance: −0.001%
  Pasteurellaceae change in percent relative abundance: 0.000%
  Pelobacteraceae change in percent relative abundance: 0.000%
  Peptococcaceae change in percent relative abundance: −0.948%
  Peptoniphilaceae change in percent relative abundance: 0.000%
  Peptostreptococcaceae change in percent relative abundance: −0.187%
  Physalacriaceae change in percent relative abundance: 0.000%
  Poaceae change in percent relative abundance: 0.107%
  Polyangiaceae change in percent relative abundance: 0.000%
  Porphyromonadaceae change in percent relative abundance: −19.192%
  Prevotellaceae change in percent relative abundance: −0.240%
  Pseudomonadaceae change in percent relative abundance: 0.000%
  Rhizobiaceae change in percent relative abundance: 0.001%
  Rhodobacteraceae change in percent relative abundance: 0.000%
  Rikenellaceae change in percent relative abundance: −6.166%
  Ruminococcaceae change in percent relative abundance: −1.440%
  Sphingomonadaceae change in percent relative abundance: 0.000%
  Spirochaetaceae change in percent relative abundance: −0.056%
  Spiroplasmataceae change in percent relative abundance: −0.004%
  Staphylococcaceae change in percent relative abundance: 0.000%
  Streptococcaceae change in percent relative abundance: −2.376%
  Thermoanaerobacteraceae change in percent relative abundance: −0.028%
  Veillonellaceae change in percent relative abundance: 0.001%
  Verrucomicrobiaceae change in percent relative abundance: −0.009%
  Xanthomonadaceae change in percent relative abundance: 0.002%
  all other commensal taxa such as Bacteroidaceae and Lactobacillaceae: depleted
  mice with Enterococcaceae blooms: 4/5
  Enterococcaceae change in percent relative abundance: 75.807%
Gut microbiome [1]; oral 100 mg/kg every 12 hours for 5 days, listed as amoxicillin
  Enterococcaceae change in percent relative abundance: 75.8%
Gut microbiome [2]; C3H, ip, 5 days
  Camobacteriaceae change in percent relative abundance: 0.000%
  Chitinophagaceae change in percent relative abundance: 0.000%
  Christensenellaceae change in percent relative abundance: 0.000%
  Clostridiaceae change in percent relative abundance: 0.211%
  Clostridiales change in percent relative abundance: −0.037%
  Clostridiales family xi. incertae sedis change in percent relative abundance: −0.010%
  Clostridiales family xiii. incertae sedis change in percent relative abundance: −0.007%
  Coriobacteriaceae change in percent relative abundance: 0.099%
Gut microbiome [2]; ip
  Acholeplasmataceae change in percent relative abundance: 0.005%
  Aerococcaceae change in percent relative abundance: 0.000%
  Anaerolineaceae change in percent relative abundance: 0.000%
  Anaeroplasmataceae change in percent relative abundance: −0.132%
  Anaplasmataceae change in percent relative abundance: 0.000%
  Aspergillaceae change in percent relative abundance: 0.000%
  Asteraceae change in percent relative abundance: 0.000%
  Bacillaceae change in percent relative abundance: −0.011%
  Bacillales change in percent relative abundance: −0.031%
  Bacteroidaceae change in percent relative abundance: 0.684%
  Bifidobacteriaceae change in percent relative abundance: 0.000%
  Candidatus saccharibacteria change in percent relative abundance: −0.018%
  Corynebacteriaceae change in percent relative abundance: 0.000%
  Cytophagaceae change in percent relative abundance: 0.001%
  Deferribacteraceae change in percent relative abundance: 0.080%
  Defluviitaleaceae change in percent relative abundance: 0.000%
  Desulfobacteraceae change in percent relative abundance: 0.000%
  Enterobacteriaceae change in percent relative abundance: −0.243%
  Enterococcaceae change in percent relative abundance: 0.052%
  Erysipelotrichaceae change in percent relative abundance: −0.193%
  Eubacteriaceae change in percent relative abundance: −1.475%
  Fabaceae change in percent relative abundance: 0.000%
  Flavobacteriaceae change in percent relative abundance: 0.000%
  Fusobacteriaceae change in percent relative abundance: 0.000%
  Gammaproteobacteria change in percent relative abundance: 0.003%
  Gloeobacteraceae change in percent relative abundance: 0.055%
  Gracilibacteraceae change in percent relative abundance: −0.026%
  Halomonadaceae change in percent relative abundance: 0.000%
  Hylidae change in percent relative abundance: 0.000%
  Kopriimonadaceae change in percent relative abundance: 0.000%
  Lachnospiraceae change in percent relative abundance: −1.425%
  Lactobacillaceae change in percent relative abundance: 1.726%
  Leuconostocaceae change in percent relative abundance: 0.000%
  Methylobacteriaceae change in percent relative abundance: 0.000%
  Microbacteriaceae change in percent relative abundance: 0.000%
  Mucoraceae change in percent relative abundance: 0.000%
  Nostocaceae change in percent relative abundance: 0.000%
  Onagraceae change in percent relative abundance: 0.000%
  Oscillatoriales change in percent relative abundance: 0.000%
  Oscillospiraceae change in percent relative abundance: 0.001%
  Paenibacillaceae change in percent relative abundance: −0.001%
  Pasteurellaceae change in percent relative abundance: 0.000%
  Pelobacteraceae change in percent relative abundance: 0.000%
  Peptococcaceae change in percent relative abundance: −0.325%
  Peptoniphilaceae change in percent relative abundance: 0.000%
  Peptostreptococcaceae change in percent relative abundance: −0.131%
  Physalacriaceae change in percent relative abundance: 0.000%
  Poaceae change in percent relative abundance: 0.024%
  Polyangiaceae change in percent relative abundance: 0.000%
  Porphyromonadaceae change in percent relative abundance: 10.471%
  Prevotellaceae change in percent relative abundance: 0.080%
  Pseudomonadaceae change in percent relative abundance: 0.000%
  Rhizobiaceae change in percent relative abundance: 0.000%
  Rhodobacteraceae change in percent relative abundance: 0.000%
  Rikenellaceae change in percent relative abundance: −3.443%
  Ruminococcaceae change in percent relative abundance: −0.093%
  Sphingomonadaceae change in percent relative abundance: 0.000%
  Spirochaetaceae change in percent relative abundance: −0.032%
  Spiroplasmataceae change in percent relative abundance: −0.059%
  Staphylococcaceae change in percent relative abundance: −0.001%
  Streptococcaceae change in percent relative abundance: −7.086%
  Thermoanaerobacteraceae change in percent relative abundance: −0.008%
  Veillonellaceae change in percent relative abundance: 0.000%
  Verrucomicrobiaceae change in percent relative abundance: 1.296%
  Xanthomonadaceae change in percent relative abundance: 0.001%
Gut microbiome [2]; po
  Acholeplasmataceae change in percent relative abundance: 0.095%
  Candidatus saccharibacteria change in percent relative abundance: −0.022%
